Assay [1] addresses T1, C-RAF (Homo sapiens, UniProt P04049, Y340E/Y341E).
T1 construct: His tag (implied by nickel chromatography) (cleaved yes); StrepII tag (cleaved yes); made in house; host or cells: Sf9 insect cells (baculovirus), CRAF and h14-3-3 zeta co-expressed; MEK1 substrate from E. coli
Briefly: In vitro Raf activity determination (Alpha Screen, biotinylated kinase-dead MEK1 substrate), C-Raf. Format: biochemical. The note with it: c-Raf approximately 4 nM; ATP 1 μM; pre-incubation 60 minutes; reaction 1 hour at room temperature. The source says: CRAF cDNA was subcloned as full length protein, with Y340E and Y341E activating mutations, into a baculovirus expression vector for Sf9 insect cell expression. h14-3-3 zeta cDNA was subcloned into a baculovirus expression vector for SF9 insect cell expression. Sf9 cells co-expressing both proteins were lysed and subjected to immobilized nickel chromatography and eluted with Imidazole. A second column (StrepII binding column) was used and eluted with desthiobiotin. Protein Tags were removed using Prescission enzyme and the protein was further purified using a flowthrough step to remove tags.
C-Raf TR refers to a truncated C-Raf protein, a Δ1-324 deletion mutant. C-Raf FL refers to the full-length C-Raf protein.
(§1) Full length MEK1 with an inactivating K97R ATP binding site mutation is utilized as a RAF substrate. The MEK1 cDNA was subcloned with an N-terminal (his)6 tag into a vector for E. Coli expression. The MEK1 substrate was purified from E. Coli lysate by nickel affinity chromatography followed by anion exchange. The final MEK1 preparation was biotinylated (Pierce EZ-Link Sulfo-NHS-LC-Biotin) and concentrated.
(§2) Assay Materials: Assay buffer is 50 mM Tris, pH 7.5, 15 mM MgCl2, 0.01% Bovine Serum Albumin (BSA) and 1 mM dithiothreitol (DTT); Stop buffer is 60 mM ethylenediaminetetraacetic acid (EDTA) and 0.01% Tween® 20; b-Raf (V600E), active; biotinylated Mek, kinase dead; Alpha Screen detection kit (available from PerkinElmer™, #6760617R); Anti phospho-MEK1/2 (available from Cell Signaling Technology, Inc. #9121); 384 well low volume assay plates (White Greiner® plates).
(§3) Assay conditions: b-Raf (V600E) approximately 4 pM; c-Raf approximately 4 nM; biotinylated Mek, kinase dead approximately 10 nM; ATP 10 μM for BRAF (V600E) and 1 μM for CRAF; Pre-incubation time with compounds 60 minutes at room temperature; Reaction time 1 or 3 hours at room temperature.
(§4) Assay protocol: Raf and biotinylated Mek (kinase dead) were combined at 2× final concentrations in assay buffer (50 mM Tris, pH 7.5, 15 mM MgCl2, 0.01% BSA and 1 mM DTT) and dispensed […] per well in assay plates (Greiner white 384 well assay plates #781207) containing […] of 40× of a Raf kinase inhibitor test compound diluted in 100% DMSO. The plate was incubated for 60 minutes at room temperature. The Raf kinase activity reaction was started by the addition of […] per well of 2×ATP diluted in assay buffer. After 3 hours (b-Raf(V600E)) or 1 hour (c-Raf). The reactions were stopped and the phosphorylated product was measured using a rabbit anti-p-MEK (Cell Signaling, #9121) antibody and the Alpha Screen IgG (ProteinA) detection Kit (PerkinElmer #6760617R), by the addition of […] to the well of a mixture of the antibody (1:2000 dilution) and detection beads (1:2000 dilution of both beads) in Stop/bead buffer (25 mM EDTA, 50 mM Tris, pH 7.5, 0.01% Tween20). The additions were carried out under dark conditions to protect the detection beads from light. A lid was placed on top of the plate and incubated for 1 hour at room temperature, after which the luminescence was read on a PerkinElmer Envision instrument. The concentration of each compound for 50% inhibition (IC50) was calculated by non-linear regression using XL Fit data analysis software.

For assay [2], the target named is T2, b-Raf (V600E) (Homo sapiens, UniProt P15056, V600E).
T2 construct: made in house
Nature of the assay: In vitro Raf activity determination (Alpha Screen, biotinylated kinase-dead MEK1 substrate), B-Raf. Format: biochemical. The note with it: b-Raf (V600E) approximately 4 pM; ATP 10 μM; pre-incubation 60 minutes; reaction 3 hours at room temperature. The protocol: as §1, §2, §3, §4

Structures are written as SMILES.

T2 sequence (P15056 whole entry V600E): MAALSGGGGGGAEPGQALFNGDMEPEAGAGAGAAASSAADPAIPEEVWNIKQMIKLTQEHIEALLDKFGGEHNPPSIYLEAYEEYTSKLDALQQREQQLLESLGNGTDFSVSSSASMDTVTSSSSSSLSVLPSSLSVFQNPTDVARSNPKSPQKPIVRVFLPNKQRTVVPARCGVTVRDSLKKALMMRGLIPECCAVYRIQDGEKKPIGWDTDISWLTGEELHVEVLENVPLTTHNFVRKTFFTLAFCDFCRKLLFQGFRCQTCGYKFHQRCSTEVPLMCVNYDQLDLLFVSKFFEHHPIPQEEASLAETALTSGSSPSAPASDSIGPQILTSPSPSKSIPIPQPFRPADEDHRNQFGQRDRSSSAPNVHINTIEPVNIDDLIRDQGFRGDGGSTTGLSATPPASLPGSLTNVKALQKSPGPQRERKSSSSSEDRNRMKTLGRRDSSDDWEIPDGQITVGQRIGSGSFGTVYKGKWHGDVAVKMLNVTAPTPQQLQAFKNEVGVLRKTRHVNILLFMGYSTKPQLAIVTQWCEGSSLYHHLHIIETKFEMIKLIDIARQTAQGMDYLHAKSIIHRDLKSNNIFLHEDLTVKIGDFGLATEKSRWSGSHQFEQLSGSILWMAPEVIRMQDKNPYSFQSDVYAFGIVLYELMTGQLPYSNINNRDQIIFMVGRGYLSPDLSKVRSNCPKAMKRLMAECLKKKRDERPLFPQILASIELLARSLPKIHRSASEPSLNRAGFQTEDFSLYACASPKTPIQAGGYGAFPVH
T1 sequence (P04049 whole entry Y340E/Y341E): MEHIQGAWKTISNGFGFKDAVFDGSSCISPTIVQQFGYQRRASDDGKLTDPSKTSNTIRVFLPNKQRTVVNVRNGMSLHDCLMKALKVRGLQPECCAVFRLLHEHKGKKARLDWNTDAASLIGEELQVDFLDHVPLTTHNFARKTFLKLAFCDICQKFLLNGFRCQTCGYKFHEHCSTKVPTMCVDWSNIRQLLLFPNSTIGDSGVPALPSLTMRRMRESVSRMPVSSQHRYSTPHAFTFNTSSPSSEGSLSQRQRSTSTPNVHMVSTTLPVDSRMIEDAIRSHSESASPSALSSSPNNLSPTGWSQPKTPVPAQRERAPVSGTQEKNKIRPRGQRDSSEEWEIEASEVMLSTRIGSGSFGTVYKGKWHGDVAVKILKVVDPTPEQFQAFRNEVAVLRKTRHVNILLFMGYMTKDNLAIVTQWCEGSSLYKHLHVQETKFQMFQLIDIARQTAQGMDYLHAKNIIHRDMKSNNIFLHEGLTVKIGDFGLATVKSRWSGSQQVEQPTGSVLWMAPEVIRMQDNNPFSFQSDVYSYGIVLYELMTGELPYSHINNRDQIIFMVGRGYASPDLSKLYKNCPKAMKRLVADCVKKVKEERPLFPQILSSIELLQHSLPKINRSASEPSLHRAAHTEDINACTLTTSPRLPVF
T1 sequence (P63104 whole entry partner): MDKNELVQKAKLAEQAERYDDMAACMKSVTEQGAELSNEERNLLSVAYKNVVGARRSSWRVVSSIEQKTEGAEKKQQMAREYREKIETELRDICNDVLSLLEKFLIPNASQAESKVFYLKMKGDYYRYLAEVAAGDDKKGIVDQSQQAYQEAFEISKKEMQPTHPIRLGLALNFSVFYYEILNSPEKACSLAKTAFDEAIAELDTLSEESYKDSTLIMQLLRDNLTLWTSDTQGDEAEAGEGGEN

Consider `Cc1ncc(NC(=O)c2cc(C(C)C)on2)cc1-c1cnc(N(C)C)c(C#N)c1` [Example 269, N-(5′-cyano-6′-(dimethylamino)-2 methyl-[3,3′-bipyridin]-5-yl)-5-isopropylisoxazole-3-carboxamide], for which the IC50 in assay [1] was determined as 0.636 nM; in assay [2] it was 6.15 nM.

On to `Cc1ncc(NC(=O)c2cc(C(C)(C)F)ccn2)cc1-c1cnc(N2CC(C)(O)C2)c(C#N)c1` [Example 243, N-(5′-cyano-6′-(3-hydroxy-3-methylazetidin-1-yl)-2-methyl-[3,3′-bipyridin]-5-yl)-4-(2-fluoropropan-2-yl)picolinamide], for which the IC50 in assay [1] stood at 1.03 nM; in assay [2] it was 9.83 nM.

For the compound `Cc1ccc(NC(=O)c2cnnc(C(F)(F)F)c2)cc1-c1cnc(NC2CCOCC2)c(C#N)c1` [Example 174, N-(3-(5-cyano-6-((tetrahydro-2H-pyran-4-yl)amino)pyridin-3-yl)-4-methylphenyl)-6-(trifluoromethyl) pyridazine-4-carboxamide], the IC50 in assay [1] was found to be 0.177 nM; in assay [2], 0.576 nM.

Turning to `Cc1ccc(NC(=O)c2cccc(S(C)(=O)=O)c2)cc1-c1cnc(N2CCNCC2)c(C#N)c1` [Example 159, N-(3-(5-cyano-6-(piperazin-1-yl)pyridin-3-yl)-4-methylphenyl)-3-(methylsulfonyl) benzamide], the results for the IC50 in assay [1] and in assay [2] were 0.197 nM and 1.49 nM, respectively.

Consider `Cc1ncc(NC(=O)c2cc(C(F)(F)F)nn2C)cc1-c1cnc(N(C)C)c(C#N)c1` [Example 267, N-(5′-cyano-6′-(dimethylamino)-2-methyl-[3,3′-bipyridin]-5-yl)-1-methyl-3-(trifluoromethyl)-1H-pyrazole-5-carboxamide], for which the figures for the IC50 in assay [1] and in assay [2] were 196 nM and 1660 nM, respectively.

Regarding `Cc1ncc(NC(=O)c2ccnc(C(C)(C)C#N)c2)cc1-c1cnc(N2C[C@H]3C[C@@H]2CO3)c(C#N)c1` [Example 90, N-(6′-((1R,4R)-2-oxa-5-azabicyclo[2.2.1]heptan-5-yl)-5′-cyano-2-methyl-[3,3′-bipyridin]-5-yl)-2-(2-cyanopropan-2-yl)isonicotinamide], the IC50 in assay [1] stood at 2.1 nM; in assay [2] it was 8.94 nM.

For `Cc1ccc(NC(=O)c2ccnc(C(C)(C)C#N)c2)cc1-c1cnc(C2CCOCC2)c(C#N)c1` [Example 137, N-(3-(5-cyano-6-(tetrahydro-2H-pyran-4-yl)pyridin-3-yl)-4-methylphenyl)-2-(2-cyanopropan-2-yl)isonicotinamide], the IC50 in assay [1] is 0.476 nM; in assay [2] it was 1.98 nM.

Take `Cc1ncc(NC(=O)c2ccnc(C(F)(F)F)c2)cc1-c1cnc(-c2cn(C)nc2C)c(C#N)c1` [Example 111, N-(5′-cyano-6′-(1,3-dimethyl-1H-pyrazol-4-yl)-2-methyl-[3,3′-bipyridin]-5-yl)-2-(trifluoromethyl) isonicotinamide]: the IC50 in assay [1] was 0.397 nM; in assay [2] it was 1.46 nM.

As to `Cc1ncc(NC(=O)c2cnnc(C(C)(C)C#N)c2)cc1-c1cnc(N2CCOCC2)c(C#N)c1` [Example 207, N-(5′-cyano-2-methyl-6′-morpholino-[3,3′-bipyridin]-5-yl)-6-(2-cyanopropan-2-yl)pyridazine-4-carboxamide], the IC50 worked out at 1.35 nM in assay [1] and 6.14 nM in assay [2].

Regarding `Cc1ccc(NC(=O)c2ccnc(C(F)(F)F)c2)cc1-c1cc(C#N)c(N)nc1C` [Example 42, N-(3-(6-amino-5-cyano-2-methylpyridin-3-yl)-4-methylphenyl)-2-(trifluoromethyl) isonicotinamide], the values for the IC50 in assay [1] and in assay [2] were 0.672 nM and 10.2 nM, respectively.

Turning to `COCCNc1ncc(-c2cc(NC(=O)c3ccnc(C(C)(C)O)c3)ccc2C)cc1C#N` [Example 209, N-(3-(5-cyano-6-((2-methoxyethyl)amino)pyridin-3-yl)-4-methylphenyl)-2-(2-hydroxypropan-2-yl)isonicotinamide], the IC50 in assay [1] was found to be 0.777 nM; in assay [2] it was 4.17 nM.

On to `Cc1ncc(NC(=O)c2ccnc(C(C)(C)C#N)c2)cc1-c1cnc(-c2ccn(C)c(=O)c2)c(C#N)c1` [Example 103, N-(5′-cyano-1″,2-dimethyl-2″-oxo-1″,2″-dihydro-[3,3′:6′,4″- terpyridin]-5-yl)-2-(2-cyanopropan-2-yl)isonicotinamide], for which the IC50 came to 4.21 nM in assay [1] and 22.5 nM in assay [2].

For `Cc1ncc(NC(=O)c2cnnc(C(F)(F)F)c2)cc1-c1cnc(NC2CCOCC2)c(C#N)c1` [Example 175, N-(5′-cyano-2-methyl-6′-((tetrahydro-2H-pyran-4-yl)amino)-[3,3′-bipyridin]-5-yl)-6-(trifluoromethyl) pyridazine-4-carboxamide], the figures for the half-maximal inhibitory concentration (IC50) in assay [1] and in assay [2] were 1.25 nM and 4.74 nM, respectively.

For `Cc1ccc(NC(=O)c2cccc(C(F)(F)F)c2)cc1-c1cc(C#N)c(N)nc1C` [Example 41, N-(3-(6-amino-5-cyano-2-methylpyridin-3-yl)-4-methylphenyl)-3-(trifluoromethyl) benzamide], the IC50 in assay [1] amounted to 1.08 nM; in assay [2], 16.4 nM.

For `Cc1ccc(NC(=O)c2ccnc(C(C)(C)C#N)c2)cc1-c1cnc(Cl)c(C#N)c1` [Example 32, N-(3-(6-chloro-5-cyanopyridin-3-yl)-4-methylphenyl)-2-(2-cyanopropan-2-yl)isonicotinamide], the IC50 in assay [1] came to 1.03 nM; in assay [2], 5.73 nM.

Take `Cc1ncc(NC(=O)c2cccc(C(F)(F)F)c2)cc1-c1cnc(S(C)(=O)=O)c(C#N)c1` [Example 44, N-(5′-cyano-2-methyl-6′-(methylsulfonyl)-[3,3′-bipyridin]-5-yl)-3-(trifluoromethyl) benzamide]: the IC50 in assay [1] came out at 2.8 nM; in assay [2] it was 17.3 nM.

Take `Cc1ccc(NC(=O)c2cc(C(C)(C)C#N)ccn2)cc1-c1cnc(N2CCOCC2)c(C#N)c1` [Example 233, N-(3-(5-cyano-6-morpholinopyridin-3-yl)-4-methylphenyl)-4-(2-cyanopropan-2-yl)picolinamide]: the IC50 was 0.187 nM in assay [1] and 1.34 nM in assay [2].

As for `Cc1ccc(NC(=O)c2ccnc(C3(C#N)CC3)c2)cc1-c1cnc(N2CCNCC2)c(C#N)c1` [Example 145, N-(3-(5-cyano-6-(piperazin-1-yl)pyridin-3-yl)-4-methylphenyl)-2-(1-cyanocyclopropyl) isonicotinamide], the IC50 in assay [1] was 0.148 nM; in assay [2] it was 0.56 nM.

`Cc1ccc(NC(=O)c2cccc(C(F)(F)F)c2)cc1-c1cnc(NC2CC2)c(C#N)c1` [Example 17, N-(3-(5-cyano-6-(cyclopropylamino)pyridin-3-yl)-4-methylphenyl)-3-(trifluoromethyl) benzamide]: the IC50 in assay [1] was 0.323 nM; in assay [2], 2.28 nM.

Take `Cc1ccc(NC(=O)c2cnnc(C(F)(F)F)c2)cc1-c1cnc(N2CC(C)(O)C2)c(C#N)c1` [Example 213]: the values for the IC50 in assay [1] and in assay [2] were 1.78 nM and 8.79 nM, respectively.

Consider `Cc1ccc(NC(=O)c2ccnc(C(C)(C)O)c2)cc1-c1cnc(C2CCOCC2)c(C#N)c1` [Example 140, N-(3-(5-cyano-6-(tetrahydro-2H-pyran-4-yl)pyridin-3-yl)-4-methylphenyl)-2-(2-hydroxypropan-2-yl)isonicotinamide], for which the IC50 in assay [1] turned out to be 0.792 nM; in assay [2], 3.61 nM.

By IC50 is commonly meant the concentration that inhibits the measured activity by half. Low values mean greater potency in that assay, high ones weaker potency in that assay.

(Values after patent publication US10392404B2, “Compounds and compositions as kinase inhibitors” (NOVARTIS AG, priority 2014, dated 2019).)
